We go through 27 compounds from publication PMC4648982 (Chemistry Central Journal, 2015).

“Also recorded” adds a separate entry of the source. Structures can show the parent of a compound that is named as a salt.

jack bean urease, sequence (P07374 whole entry, looked up): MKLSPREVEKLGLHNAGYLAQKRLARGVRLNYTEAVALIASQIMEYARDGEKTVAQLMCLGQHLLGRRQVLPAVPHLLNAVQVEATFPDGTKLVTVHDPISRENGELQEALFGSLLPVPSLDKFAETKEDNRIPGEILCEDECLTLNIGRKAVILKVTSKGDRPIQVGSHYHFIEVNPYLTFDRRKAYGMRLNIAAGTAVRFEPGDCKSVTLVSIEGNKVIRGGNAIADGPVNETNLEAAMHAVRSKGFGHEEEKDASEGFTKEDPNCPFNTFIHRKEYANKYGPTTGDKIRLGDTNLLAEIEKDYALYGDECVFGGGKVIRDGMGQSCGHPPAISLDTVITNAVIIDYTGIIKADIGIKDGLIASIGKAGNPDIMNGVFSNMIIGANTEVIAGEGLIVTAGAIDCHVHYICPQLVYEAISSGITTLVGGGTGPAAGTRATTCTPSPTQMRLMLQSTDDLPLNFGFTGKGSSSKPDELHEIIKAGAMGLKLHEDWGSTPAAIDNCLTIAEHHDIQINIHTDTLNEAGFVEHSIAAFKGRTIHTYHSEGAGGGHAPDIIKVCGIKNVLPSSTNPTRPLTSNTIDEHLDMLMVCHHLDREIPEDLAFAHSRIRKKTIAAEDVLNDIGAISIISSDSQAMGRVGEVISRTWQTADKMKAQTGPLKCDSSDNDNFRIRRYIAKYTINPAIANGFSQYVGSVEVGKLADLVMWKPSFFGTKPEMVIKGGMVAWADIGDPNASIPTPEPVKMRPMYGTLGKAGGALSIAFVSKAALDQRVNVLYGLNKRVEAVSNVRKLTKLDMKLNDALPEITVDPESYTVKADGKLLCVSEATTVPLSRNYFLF

One assay addresses jack bean urease (Canavalia ensiformis, UniProt P07374). In words: biochemical.
Conditions: not given
The procedure: Reaction mixture comprising of 25μL of enzyme (jack bean urease) (1 unit/well) solution and 55 μL of phosphate buffers (4 mM) containing 100 mM urea were incubated with 5 μL of test compounds dissolved in methanol (0.5 mM concentration) at 30 °C for 15 min in 96-well plates. Urease activity was determined by measuring ammonia production using the indophenol method as described by Weather burn. Briefly, 45 μl each phenol reagent (1 % w/v phenol and 0.005 % w/v sodium nitroprussside) and 70 μL of alkali reagent(0.5 % w/v NaOH and 0.1 % active chloride NaOCl) were added to each well. The increasing absorbance at 630 nm was measured afther 50 min, using a microplate reader (Molecular Device, USA). All reactions were performed in triplicate in a final volume of 200 μL. The results (change in absorbance per min) were processed by using softMax Pro software (molecular Device, USA). The entire assays were performed at pH 6.8. Percentage inhibitions were calculated from the formula 100 − (ODtestwell/ODcontrol) × 100. Thiourea was used as the standard inhibitor of urease.
By IC50 is commonly meant the concentration at which inhibition is half-maximal. `Cn1c(O)c(C(c2ccc(C=O)cc2)c2c(O)n(C)c(=O)n(C)c2=O)c(=O)n(C)c1=O` [Compound 4a, 4-(bis(6-Hydroxy-1,3-dimethyl-2,4-dioxo-1,2,3,4-tetrahydropyrimidin-5-yl)methyl)benzaldehyde diethylaminium salt] gave an IC50 of 39.3 ± 0.36 µM.
Compound `Cc1cccc(C(c2c(O)n(C)c(=O)n(C)c2=O)c2c(O)n(C)c(=O)n(C)c2=O)c1` [Compound 4b, 5,5′-(3-Tolylmethylene)bis(1,3-dimethylpyrimidine-2,4,6(1H,3H,5H)-trione) diethylaminium salt] registered an IC50 of 34.4 ± 1.57 µM.
Still for that read-out and setting: next, `Cn1c(O)c(C(c2ccc([N+](=O)[O-])cc2)c2c(O)n(C)c(=O)n(C)c2=O)c(=O)n(C)c1=O` [Compound 4c, 5,5′-((4-Nitrophenyl)methylene)bis(1,3-dimethylpyrimidine-2,4,6(1H,3H,5H)-trione)diethylaminium salt]: 54.2 ± 0.47 µM; `COc1ccc(C(c2c(O)n(C)c(=O)n(C)c2=O)c2c(O)n(C)c(=O)n(C)c2=O)cc1` [Compound 4d, 5,5′-((4-Methoxyphenyl)methylene)bis(1,3-dimethylpyrimidine-2,4,6(1H,3H,5H)-trione) diethylaminium salt]: 31.6 ± 0.79 µM; `Cn1c(O)c(C(c2cccc(Br)c2)c2c(O)n(C)c(=O)n(C)c2=O)c(=O)n(C)c1=O` [Compound 4e, 5,5′-((3-Bromophenyl)methylene)bis(1,3-dimethylpyrimidine-2,4,6(1H,3H,5H)-trione) diethylaminium salt]: 27.5 ± 0.12 µM.
Turning to `Cn1c(O)c(C(c2ccc(O)cc2)c2c(O)n(C)c(=O)n(C)c2=O)c(=O)n(C)c1=O` [Compound 4f, 5,5′-((4-hydroxyphenyl)methylene)bis(6-hydroxy-1,3-dimethylpyrimidine-2,4(1H,3H)-dione) diethylaminium salt], the half-maximal inhibitory concentration (IC50) stood at 54.2 ± 0.83 µM.
On to `Cc1ccc(C(c2c(O)n(C)c(=O)n(C)c2=O)c2c(O)n(C)c(=O)n(C)c2=O)cc1` [Compound 4g, 5,5′-(p-Tolylmethylene)bis(1,3-dimethylpyrimidine-2,4,6(1H,3H,5H)-trione) diethylaminium salt], for which the midpoint of inhibition, the IC50, lay at 28.5 ± 0.41 µM.
Still for that read-out and setting: next, `Cn1c(O)c(C(c2ccc3ccccc3c2)c2c(O)n(C)c(=O)n(C)c2=O)c(=O)n(C)c1=O` [Compound 4h, 5,5′-(Naphthalen-2-ylmethylene)bis(1,3-dimethylpyrimidine-2,4,6(1H,3H,5H)-trione) diethylaminium salt]: 40.3 ± 0.32 µM; `Cc1ccc(C(c2c(O)[nH]c(=O)[nH]c2=O)c2c(O)[nH]c(=O)[nH]c2=O)cc1` [Compound 4i, 5,5′-(p-Tolylmethylene)bis(6-hydroxypyrimidine-2,4(1H,3H)-dione) diethylaminium salt]: 17.6 ± 0.23 µM; `O=c1[nH]c(O)c(C(c2ccc(Cl)cc2)c2c(O)[nH]c(=O)[nH]c2=O)c(=O)[nH]1` [Compound 4j, 5,5′-((4-Chlorophenyl)methylene)bis(6-hydroxypyrimidine-2,4(1H,3H)-dione) diethylaminium salt]: 22.3 ± 0.73 µM.
Same read-out and setting: next, `COc1ccc(C(c2c(O)[nH]c(=O)[nH]c2=O)c2c(O)[nH]c(=O)[nH]c2=O)cc1` [Compound 4k, 5,5′-((4-Methoxyphenyl)methylene)bis(6-hydroxypyrimidine-2,4(1H,3H)-dione) diethylaminium salt]: 25.8 ± 0.23 µM; `O=c1[nH]c(O)c(C(c2ccc3ccccc3c2)c2c(O)[nH]c(=O)[nH]c2=O)c(=O)[nH]1` [Compound 4l, 5,5′-(Naphthalen-2-ylmethylene)bis(6-hydroxypyrimidine-2,4(1H,3H)-dione) diethylaminium salt]: 22.7 ± 0.2 µM; `Cn1c(O)c(C(C2=C(O)CC(C)(C)CC2=O)c2ccccc2)c(=O)n(C)c1=O` (stereo not shown) [Compound 4m, 5-((2-Hydroxy-4,4-dimethyl-6-oxocyclohex-1-en-1-yl)(phenyl)methyl)-1,3-dimethyl-2,6-dioxo-1,2,3,6-tetrahydropyrimidin-4-olate diethylaminium salt]: 39.3 ± 0.79 µM.
Same read-out and setting: under `Cc1ccc(C(C2=C(O)CC(C)(C)CC2=O)c2c(O)n(C)c(=O)n(C)c2=O)cc1` (stereo not shown) [Compound 4n, 5-((2-Hydroxy-4,4-dimethyl-6-oxocyclohex-1-en-1-yl)(p-tolyl)methyl)-1,3-dimethyl-2,6-dioxo-1,2,3,6-tetrahydropyrimidin-4-olate diethylaminium salt] stands 41.2 ± 0.58 µM; under `COc1ccc(C(C2=C(O)CC(C)(C)CC2=O)c2c(O)n(C)c(=O)n(C)c2=O)cc1` (stereo not shown) [Compound 4o, 5-((2-Hydroxy-4,4-dimethyl-6-oxocyclohex-1-en-1-yl)(4-methoxyphenyl)methyl)-1,3-dimethyl-2,6-dioxo-1,2,3,6-tetrahydropyrimidin-4-olate diethylaminium salt], 83 ± 0.66 µM.
With `Cn1c(O)c(C(C2=C(O)CC(C)(C)CC2=O)c2ccc(Cl)cc2)c(=O)n(C)c1=O` (stereo not shown) [Compound 4p, 5-((4-Chlorophenyl)(2-hydroxy-4,4-dimethyl-6-oxocyclohex-1-en-1-yl)methyl)-1,3-dimethyl-2,6-dioxo-1,2,3,6-tetrahydropyrimidin-4-olate diethylaminium salt], the IC50 is 39.7 ± 0.7 µM.
The same measure, in the same setting: next, `Cn1c(O)c(C(C2=C(O)CC(C)(C)CC2=O)c2ccc(Br)cc2)c(=O)n(C)c1=O` (stereo not shown) [Compound 4q, 5-((4-Bromophenyl)(2-hydroxy-4,4-dimethyl-6-oxocyclohex-1-en-1-yl)methyl)-1,3-dimethyl-2,6-dioxo-1,2,3,6-tetrahydropyrimidin-4-olate diethylaminium salt]: 24.6 ± 0.42 µM.
Still for that read-out and setting: under `Cn1c(O)c(C(C2=C(O)CC(C)(C)CC2=O)c2cccc(Br)c2)c(=O)n(C)c1=O` (stereo not shown) [Compound 4r, 5-((3-Bromophenyl)(2-hydroxy-4,4-dimethyl-6-oxocyclohex-1-en-1-yl)methyl)-1,3-dimethyl-2,6-dioxo-1,2,3,6-tetrahydropyrimidin-4-olate diethylaminium salt] stands 27.5 ± 0.19 µM; under `Cn1c(O)c(C(C2=C(O)CC(C)(C)CC2=O)c2ccccc2[N+](=O)[O-])c(=O)n(C)c1=O` (stereo not shown) [Compound 4s, 5-((2-Hydroxy-4,4-dimethyl-6-oxocyclohex-1-en-1-yl)(1-nitrophenyl)methyl)-1,3-dimethyl-2,6-dioxo-1,2,3,6-tetrahydropyrimidin-4-olate diethylaminium salt], 110 ± 1.1 µM.
The same measure, in the same setting: next, `CN(C)c1ccc(C(C2=C(O)CC(C)(C)CC2=O)c2c(O)n(C)c(=O)n(C)c2=O)cc1` (stereo not shown) [Compound 4t, 5-((2-Hydroxy-4,4-dimethyl-6-oxocyclohex-1-en-1-yl)(4-(dimethylamino)phenyl)methyl)-1,3-dimethyl-2,6-dioxo-1,2,3,6-tetrahydropyrimidin-4-olate diethylaminium salt]: 142.1 ± 0.64 µM; `Cn1c(O)c(C(C2=C(O)CC(C)(C)CC2=O)c2ccc(O)cc2)c(=O)n(C)c1=O` (stereo not shown) [Compound 4v, 5-((2-Hydroxy-4,4-dimethyl-6-oxocyclohex-1-en-1-yl)(4-hydroxyphenyl)methyl)-1,3-dimethyl-2,6-dioxo-1,2,3,6-tetrahydropyrimidin-4-olate diethylaminium salt]: 52.2 ± 1.26 µM; `Cn1c(O)c(C(C2=C(O)CC(C)(C)CC2=O)c2ccc(Cl)cc2Cl)c(=O)n(C)c1=O` (stereo not shown) [Compound 4w, 5-((2,4-Dichlorophenyl)(2-hydroxy-4,4-dimethyl-6-oxocyclohex-1-en-1-yl)methyl)-1,3-dimethyl-2,6-dioxo-1,2,3,6-tetrahydropyrimidin-4-olate diethylaminium salt]: 59.4 ± 0.98 µM.
In the case of `Cn1c(O)c(C(C2=C(O)CC(C)(C)CC2=O)c2ccc(C=O)cc2)c(=O)n(C)c1=O` (stereo not shown) [Compound 4x, 4-((6-hydroxy-1,3-dimethyl-2,4-dioxo-1,2,3,4-tetrahydropyrimidin-5-yl)(2-hydroxy-4,4-dimethyl-6-oxocyclohex-1-en-1-yl)methyl)benzaldehyde diethylaminium salt], the half-inhibitory concentration (IC50) stood at 38.5 ± 0.28 µM.
The same measure, in the same setting: next, `Cn1c(O)c(C(C2=C(O)CC(C)(C)CC2=O)c2c(Cl)cccc2Cl)c(=O)n(C)c1=O` (stereo not shown) [Compound 4y, 5-((2,6-Dichlorophenyl)(2-hydroxy-4,4-dimethyl-6-oxocyclohex-1-en-1-yl)methyl)-1,3-dimethyl-2,6-dioxo-1,2,3,6-tetrahydropyrimidin-4-olate diethylaminium salt]: 83.4 ± 1 µM.
On the same count and under the same terms, under `Cn1c(O)c(C(C2=C(O)CC(C)(C)CC2=O)c2ccc3ccccc3c2)c(=O)n(C)c1=O` (stereo not shown) [Compound 4z, 5-((2-Hydroxy-4,4-dimethyl-6-oxocyclohex-1-en-1-yl)(naphthalen-2-yl)methyl)-1,3-dimethyl-2,6-dioxo-1,2,3,6-tetrahydropyrimidin-4-olate diethylaminium salt] stands 39.8 ± 1.38 µM; under `CC1(C)CC(=O)C(C(C2=C(O)CC(C)(C)CC2=O)c2ccccc2)=C(O)C1` [Compound 5a, 2-((2-Hydroxy-4,4-dimethyl-6-oxocyclohex-1-en-1-yl)(phenyl)methyl)-5,5-dimethyl-3-oxocyclohex-1-enolate diethylaminium salt], 74.5 ± 0.88 µM.

The same assay, now with this note: in vitro assay, authors' verbal grading.
With `Cc1ccc(C(c2c(O)[nH]c(=O)[nH]c2=O)c2c(O)[nH]c(=O)[nH]c2=O)cc1` [Compound 4i, 5,5′-(p-Tolylmethylene)bis(6-hydroxypyrimidine-2,4(1H,3H)-dione) diethylaminium salt], the “urease inhibitory activity in words” value was “most active”.
For the compound `O=c1[nH]c(O)c(C(c2ccc(Cl)cc2)c2c(O)[nH]c(=O)[nH]c2=O)c(=O)[nH]1` [Compound 4j, 5,5′-((4-Chlorophenyl)methylene)bis(6-hydroxypyrimidine-2,4(1H,3H)-dione) diethylaminium salt], the “urease inhibitory activity in words” value is given as “active”.
Same read-out and setting: under `Cn1c(O)c(C(C2=C(O)CC(C)(C)CC2=O)c2ccccc2[N+](=O)[O-])c(=O)n(C)c1=O` (stereo not shown) [Compound 4s, 5-((2-Hydroxy-4,4-dimethyl-6-oxocyclohex-1-en-1-yl)(1-nitrophenyl)methyl)-1,3-dimethyl-2,6-dioxo-1,2,3,6-tetrahydropyrimidin-4-olate diethylaminium salt] stands “inactivity”; under `CN(C)c1ccc(C(C2=C(O)CC(C)(C)CC2=O)c2c(O)n(C)c(=O)n(C)c2=O)cc1` (stereo not shown) [Compound 4t, 5-((2-Hydroxy-4,4-dimethyl-6-oxocyclohex-1-en-1-yl)(4-(dimethylamino)phenyl)methyl)-1,3-dimethyl-2,6-dioxo-1,2,3,6-tetrahydropyrimidin-4-olate diethylaminium salt], “least active; also recorded: inactivity”.

Staying with this assay, now noted: jack bean urease, indophenol method, pH 6.8, 30 °C, 15 min incubation, triplicate; read-out: Urease inhibition IC50 ± SEM.
For “2-((2-Hydroxy-4,4-dimethyl-6-oxocyclohex-1-en-1-yl)(m-tolyl)methyl)-5,5-dimethyl-3-oxocyclohex-1-enolate diethylaminium salt [Compound 5d]”, the IC50 stood at 51.3 ± 0.45 µM.
